These results are taken from patent US8119671B2, “Isoxazoline-substituted benzamide compound and pest control agent” (Nissan Chemical Industries, Ltd., priority 2007, dated 2012).

In general, mortality refers to the percentage killed. Read a low mortality as a weak lethal effect.

Format in all cases: in vivo
One assay relates to Aulacophora femoralis. The experiment in a line: Test Example 12: Mortality Test for Aulacophora femoralis. The following applies: in Cucumis sativus, 144 h. On the procedure:
(§1) A 10% emulsifiable concentrate of the compound of the present invention (depending on the type of the compound, a 10% wettable powder was subjected to the test) was diluted with water containing a spreader to prepare a drug solution in a concentration of 500 ppm. In this drug solution, a leaf of cucumber was immersed for about 10 seconds and was air-dried and then put into a petri dish. In the petri dish, five 2 instar larvae of Aulacophora femoralis per petri dish were released and the petri dish was capped and stored in a thermostat room of 25° C. The number of killed larvae after 6 days was measured and the mortality was calculated from the same calculation formula as that in Test Example 1. Here, the test was carried out with two replications.

The test system of another assay is Helicoverpa armigera. The experiment in a line: Test Example 4: Mortality Test for Helicoverpa armigera. Particulars: 144 h. On the procedure:
A 10% emulsifiable concentrate of the compound of the present invention (depending on the type of the compound, a 10% wettable powder was subjected to the test) was diluted with water containing a spreader to prepare a drug solution in a concentration of 100 ppm. In this drug solution, a leaf of canarium album was immersed for about 10 seconds and was air-dried and then put into a petri dish. In the petri dish, one 2 instar larva of Helicoverpa armigera per petri dish was released and the petri dish was capped and stored in a thermostat room of 25° C. The number of killed larvae after 6 days was measured and the mortality was calculated from the same calculation formula as that in Test Example 1. Here, the test was carried out with 2 replications.

Assay [1] relates to American dog ticks (Dermacentor variabilis). The assay is described as follows: Test Example 16: Mortality Test for American Dog Tick. Particulars: 96 h, thin film in petri dishes, 0.1 μg/cm^2 (acetone solution 100 ppm), protonymphs, after 4 days. The procedure: To the bottom surfaces and the side surfaces of two petri dishes having an inner diameter of 5.3 cm, 400 μL of an acetone solution in which 4 mg of a compound of the present invention was dissolved in 40 mL of acetone (concentration: 100 ppm) was applied and the acetone was volatilized to form a thin film of the compound of the present invention on the inner walls of the petri dishes. The inner wall of the used petri dish has an area of 40 cm^2, so that the amount of the applied drug is 0.1 μg/cm^2. In one petri dish, 10 American dog ticks (Dermacentor variabilis) protonymphs (male and female were mixed) were released and the petri dish was capped with the other petri dish. The seam part of the two petri dishes was sealed with a tape so that the protonymphs could not flee and the two petri dishes were stored in a thermostat room of 25° C. The number of killed protonymphes after 4 days was measured and the mortality was calculated from the same calculation formula as that in Test Example 1. Here, the test was carried out on the single sample.

Another assay concerns Homona magnanima. The experiment in a line: Test Example 3: Mortality Test for Homona magnanima. The following applies: 144 h. The procedure:
as §1, with “100” for “500”, “canarium album” for “cucumber”, “Homona magnanima” for “Aulacophora femoralis”

The next assay deals with Ctenocephalides felis. The experiment in a line: Test Example 15: Mortality Test for Cat Flea. Particulars: 96 h. The procedure:
To the bottom surface and the side surface of a petri dish having an inner diameter of 5.3 cm, 400 μL of an acetone solution in which 40 mg of the compound of the present invention was dissolved in 40 mL of acetone (concentration: 1,000 ppm) was applied and the acetone was volatilized to form a thin film of the compound of the present invention on the inner wall of the petri dish. The inner wall of the used petri dish has an area of 40 cm^2, so that the amount of the applied drug is 1 μg/cm^2. In the petri dish, 10 Ctenocephalides felis imagines (male and female were mixed) were released and the petri dish was capped and stored in a thermostat room of 25° C. The number of killed larvae after 4 days was measured and the mortality was calculated from the same calculation formula as that in Test Example 1. Here, the test was carried out on the single sample.

The test system of a further assay is Thrips palmi. The experiment in a line: Test Example 6: Mortality Test for Thrips palmi. The following applies: 48 h. On the procedure:
In a styrol cup having an inner diameter of 7 cm, a wet filtration paper was laid, and on the paper, a leaf of kidney bean cut out so as to have the same diameter as the inner diameter of the cup was laid, followed by inoculating 10 imagines of Thrips palmi per leaf to the leaf. A 10% emulsifiable concentrate of the compound of the present invention (depending on the type of the compound, a 10% wettable powder was subjected to the test) was diluted with water containing a spreader to prepare a drug solution in a concentration of 100 ppm. The drug solution was dusted using a rotary dusting tower in an amount of 2.5 mL per one styrol cup and the cup was capped and stored in a thermostat room of 25° C. The number of killed imagines after 2 days was measured and the mortality was calculated from the same calculation formula as that in Test Example 1. Here, the test was carried out with two replications.

Another assay deals with Plutella xylostella. The assay is described as follows: Test Example 1: Mortality Test for Plutella xylostella. Particulars: 144 h. On the procedure:
as §1, with “10” for “500”, “canarium album” for “cucumber”, “Plutella xylostella” for “Aulacophora femoralis”, “following” for “same”, “formula: Mortality (%)=(number of killed larvae/number of released larvae)×100.” for “formula as that in Test Example 1.”

The subject of assay [2] is Frankliniella occidentalis. The assay is described as follows: Test Example 18: Mortality Test for Frankliniella occidentalis (Comparative Test 2). The following applies: 48 h. The procedure: In a styrol cup having an inner diameter of 7 cm, a wet filtration paper was laid, and on the paper, a leaf of kidney bean cut out so as to have the same diameter as the inner diameter of the cup was laid, followed by inoculating ten 1 instar larvae of Frankliniella occidentalis per leaf to the leaf. 10% emulsifiable concentrates of the compound of the present invention and a comparative compound were diluted with water containing a spreader to prepare drug solutions in a predetermined concentration. The drug solutions were dusted using a rotary dusting tower in an amount of 2.5 mL per styrol cup, and the cup was capped and stored in a thermostat room of 25° C. The number of killed larvae after 2 days was measured and the mortality was calculated from the following calculation formula: Mortality (%)=(number of killed larvae/number of released larvae)×100. Here, the test was carried out with two replications.

In the assay with Aulacophora femoralis, `Cc1cc(C2=NOC(c3cc(Cl)cc(Cl)c3)(C(F)(F)F)C2)ccc1C(=O)NC1(c2ccccn2)CC1` (stereo not drawn) [No. 1-007, 4-[5-(3,5-Dichlorophenyl)-5-trifluoromethyl-4,5-dihydroisoxazole-3-yl]-2-methyl-N-[1-(2-pyridyl)cyclopropyl]benzamide] showed a mortality at 500 ppm of at least 80%. Moreover, the mortality at 100 ppm in the assay on Helicoverpa armigera is at least 80%. In assay [1], this molecule displayed a mortality at 100 ppm, 0.1 µg/cm2 of at least 80%. Also, the mortality at 100 ppm in the assay with Homona magnanima is at least 80%. The molecule also yielded a mortality at 1000 ppm, 1 µg/cm2 with Ctenocephalides felis of at least 80%. This molecule displayed a mortality at 100 ppm with Thrips palmi of at least 80%. Moreover, the mortality at 10 ppm in the assay on Plutella xylostella was at least 80%. In assay [2], this molecule displayed a mortality at 0.1 ppm of 0%, a mortality at 0.3 ppm of 0%, a mortality at 1 ppm of 38.1% and a mortality at 3.3 ppm of 96.3%. In assay [2], this molecule showed a mortality at 10 ppm of 100%.
